Measurements from patent US4920103A, “Modifications of mycinose and 3-O-demethylmycinose in tylosin-type macrolides” (Eli Lilly and Company, priority 1986, dated 1990).
Converted amounts (≈) assume the structure as drawn. Like-named read-outs stand apart in the source and are kept apart here.

What was measured:
Format in all cases: cell-based
[1] = system: Streptococcus Group D 2041; assay: MIC, standard agar-dilution assay, Streptococcus Group D 2041; settings: GROUPD2041
Experimental: (§1) The MIC's in Table II were determined by standard agar-dilution assays. The MIC's in Table III were obtained using conventional broth-dilution microtiter tests.

[2] = system: Haemophilus influenzae C.L.; assay: MIC, standard agar-dilution assay, H. influenzae C.L.
Experimental: as §1

[3] = system: Staphylococcus aureus X1.1; assay: MIC, standard agar-dilution assay, S. aureus X1.1
Experimental: as §1

[4] = system: Streptococcus pneumoniae Park I; assay: MIC, standard agar-dilution assay, S. pneumoniae Park I; settings: Streptococcus pneumoniae
Experimental: as §1

[5] = system: Staphylococcus aureus V41; assay: MIC, standard agar-dilution assay, S. aureus V41; settings: Staphylococcus aureus, V41
Experimental: as §1

[6] = system: Klebsiella pneumoniae X68; assay: MIC, standard agar-dilution assay, K. pneumoniae X68; settings: agar-dilution, read-out: MIC
Experimental: as §1

[7] = system: Staphylococcus epidermidis 222; assay: MIC, standard agar-dilution assay, S. epidermidis 222
Experimental: as §1

[8] = system: Pseudomonas aeruginosa X239; assay: MIC, standard agar-dilution assay, P. aeruginosa X239; settings: agar-dilution, read-out: MIC
Experimental: as §1

[9] = system: Staphylococcus aureus X400; assay: MIC, standard agar-dilution assay, S. aureus X400
Experimental: as §1

[10] = system: Streptococcus Group D X66; assay: MIC, standard agar-dilution assay, Streptococcus Group D X66
Experimental: as §1

[11] = system: Streptococcus pyogenes C203; assay: MIC, standard agar-dilution assay, S. pyogenes C203; settings: Streptococcus pyogenes, C203
Experimental: as §1

Escherichia coli EC14 = assay: MIC, standard agar-dilution assay, E. coli EC14; settings: agar-dilution, read-out: MIC
Experimental: as §1

[12] = system: Staphylococcus aureus S13E; assay: MIC, standard agar-dilution assay, S. aureus S13E
Experimental: as §1

[13] = system: Staphylococcus epidermidis EPI1; assay: MIC, standard agar-dilution assay, S. epidermidis EPI1
Experimental: as §1

[14] = system: Haemophilus influenzae 76; assay: MIC, standard agar-dilution assay, H. influenzae 76
Experimental: as §1

[15] = agar-dilution, ampicillin-sensitive strain, read-out: MIC
[16] = agar-dilution, ampicillin-resistant strain, read-out: MIC

**Q.** What does the source list for `CCCN(CCC)C1C(C)OC(OCC2C=C(C)C=CC(=O)C(C)CC(CCOc3ccccc3)C(OC3OC(C)C(O)C(N(C)C)C3O)C(C)C(O)CC(=O)OC2CC)C(OC)C1OC` (centres unmarked) [Compound 48, 4"-Deoxy-20-DH-20-O-phenyl-4"-[di-(n-propyl)amino]desmycosin]?
**A.** MIC [1]: 16 µg/mL (≈ 17.1 µM); MIC [2, 15]: > 128 µg/mL; MIC [3]: 16 µg/mL (≈ 17.1 µM); MIC [4]: 4 µg/mL (≈ 4.29 µM); MIC [5]: 16 µg/mL (≈ 17.1 µM); MIC [6]: > 128 µg/mL; MIC [7]: 16 µg/mL (≈ 17.1 µM); MIC [8]: > 128 µg/mL; MIC [9]: 16 µg/mL (≈ 17.1 µM); MIC [10]: 16 µg/mL (≈ 17.1 µM); MIC [11]: 8 µg/mL (≈ 8.57 µM); MIC (Escherichia coli EC14): > 128 µg/mL; MIC [12]: 16 µg/mL (≈ 17.1 µM); MIC [13]: 16 µg/mL (≈ 17.1 µM); MIC [14, 16]: > 128 µg/mL

**Q.** How did the MIC [1] turn out when `CCCNC1C(C)OC(OCC2C=C(C)C=CC(=O)C(C)CC(CCOc3ccccc3)C(OC3OC(C)C(O)C(N(C)C)C3O)C(C)C(O)CC(=O)OC2CC)C(OC)C1OC` (centres unmarked) [Compound 38, 4"-Deoxy-20-DH-20-O-phenyl-4"-(n-propylamino)desmycosin] was run?
**A.** 64 µg/mL (≈ 71.8 µM)

**Q.** What about the MIC [2, 15] of the same molecule?
**A.** > 128 µg/mL

**Q.** And the MIC ([3]; agar-dilution, read-out: MIC)?
**A.** 16 µg/mL (≈ 18 µM)

**Q.** And the MIC ([5]; agar-dilution, penicillin-resistant strain, read-out: MIC)?
**A.** 16 µg/mL (≈ 18 µM)

**Q.** And the MIC [6]?
**A.** > 128 µg/mL

**Q.** And the MIC [7]?
**A.** 8 µg/mL (≈ 8.98 µM)

**Q.** What about the MIC [8] of the same molecule?
**A.** > 128 µg/mL

**Q.** What about the MIC ([9]; agar-dilution, methicillin-resistant strain, read-out: MIC) of the same molecule?
**A.** 16 µg/mL (≈ 18 µM)

**Q.** And the MIC ([10]; agar-dilution, read-out: MIC)?
**A.** 16 µg/mL (≈ 18 µM)

**Q.** And the MIC [11]?
**A.** 4 µg/mL (≈ 4.49 µM)

**Q.** What about the MIC (Escherichia coli EC14) of the same molecule?
**A.** > 128 µg/mL

**Q.** And the MIC [12]?
**A.** 8 µg/mL (≈ 8.98 µM)

**Q.** What about the MIC ([13]; agar-dilution, read-out: MIC) of the same molecule?
**A.** 16 µg/mL (≈ 18 µM)

**Q.** What about the MIC [14, 16] of the same molecule?
**A.** > 128 µg/mL

**Q.** Which results are given for `CCC1OC(=O)CC(O)C(C)C(OC2OC(C)C(OC(C)=O)C(N(C)C)C2OC(C)=O)C(CCOc2ccccc2)CC(C)C(=O)C=CC(C)=CC1COC1OC(C)C(N)C(OC)C1OC` (centres unmarked) [Compound 20, 2',4'-Di-O-acetyl-4"-amino-4"-deoxy-20-DH-20-O-phenyldesmycosin]?
**A.** MIC [1]: 8 µg/mL (≈ 8.57 µM); MIC [2]: 16 µg/mL (≈ 17.1 µM); MIC [3]: 0.25 µg/mL (≈ 0.268 µM); MIC [4]: 1 µg/mL (≈ 1.07 µM); MIC [5]: 0.25 µg/mL (≈ 0.268 µM); MIC [6]: > 128 µg/mL; MIC [7]: 0.25 µg/mL (≈ 0.268 µM); MIC [8]: > 128 µg/mL; MIC [9]: 0.5 µg/mL (≈ 0.536 µM); MIC [10]: 4 µg/mL (≈ 4.29 µM); MIC [11]: 0.25 µg/mL (≈ 0.268 µM); MIC (Escherichia coli EC14): > 128 µg/mL; MIC [12]: 0.5 µg/mL (≈ 0.536 µM); MIC [13]: 0.5 µg/mL (≈ 0.536 µM); MIC [14]: 16 µg/mL (≈ 17.1 µM)

**Q.** For `CCC1OC(=O)CC(O)C(C)C(OC2OC(C)C(OC(C)=O)C(N(C)C)C2OC(C)=O)C(CCOc2ccccc2)CC(C)C(=O)C=CC(C)=CC1COC1OC(C)C([n+]2ccccc2)C(OC)C1OC` (centres unmarked) [Compound 22, 2',4'-Di-O-acetyl-4"-deoxy-20-DH-20-O-phenyl-4"-pyridinium-desmycosin], which MIC [1] is on record?
**A.** 16 µg/mL

**Q.** What about the MIC [2] of the same molecule?
**A.** 64 µg/mL

**Q.** What about the MIC [3] of the same molecule?
**A.** 2 µg/mL

**Q.** What about the MIC [4] of the same molecule?
**A.** 2 µg/mL

**Q.** What about the MIC [5] of the same molecule?
**A.** 4 µg/mL

**Q.** And the MIC [6]?
**A.** > 128 µg/mL

**Q.** And the MIC [7]?
**A.** 4 µg/mL

**Q.** What about the MIC [8] of the same molecule?
**A.** > 128 µg/mL

**Q.** What about the MIC [9] of the same molecule?
**A.** 4 µg/mL

**Q.** What about the MIC [10] of the same molecule?
**A.** 16 µg/mL

**Q.** And the MIC [11]?
**A.** 4 µg/mL

**Q.** What about the MIC (Escherichia coli EC14) of the same molecule?
**A.** > 128 µg/mL

**Q.** What about the MIC [12] of the same molecule?
**A.** 4 µg/mL

**Q.** What about the MIC [13] of the same molecule?
**A.** 2 µg/mL

**Q.** And the MIC [14]?
**A.** 32 µg/mL

**Q.** Which results are given for `CCC1OC(=O)CC(O)C(C)C(OC2OC(C)C(O)C(N(C)C)C2O)C(CCOc2ccccc2)CC(C)C(=O)C=CC(C)=CC1COC1OC(C)C=C(OC)C1OC` (centres unmarked) [Compound 54, 3",4"-Anhydro-20-DH-20-O-phenyl-desmycosin]?
**A.** MIC [1]: 8 µg/mL (≈ 9.61 µM); MIC [2, 15]: 128 µg/mL (≈ 154 µM); MIC [3]: 1 µg/mL (≈ 1.2 µM); MIC [4]: 4 µg/mL (≈ 4.81 µM); MIC [5]: 1 µg/mL (≈ 1.2 µM); MIC [6]: > 128 µg/mL; MIC [7]: 0.25 µg/mL (≈ 0.3 µM); MIC [8]: > 128 µg/mL; MIC [9]: 0.5 µg/mL (≈ 0.601 µM); MIC [10]: 8 µg/mL (≈ 9.61 µM); MIC [11]: 4 µg/mL (≈ 4.81 µM); MIC (Escherichia coli EC14): > 128 µg/mL; MIC [12]: 1 µg/mL (≈ 1.2 µM); MIC [13]: 1 µg/mL (≈ 1.2 µM); MIC [14, 16]: 128 µg/mL (≈ 154 µM)

**Q.** Which MIC ([1]; agar-dilution, read-out: MIC) does the source give for `CCC1OC(=O)CC(O)C(C)C(OC2OC(C)C(O)C(N(C)C)C2O)C(CCOc2ccccc2)CC(C)C(=O)C=CC(C)=CC1COC1OC(C)C(NC(C)=O)C(OC)C1OC` (centres unmarked) [Compound 37, 4"-Acetylamino-4"-deoxy-20-DH-20-O-phenyl-desmycosin] here?
**A.** 128 µg/mL (≈ 144 µM)

**Q.** What about the MIC [2, 15] of the same molecule?
**A.** > 128 µg/mL

**Q.** What about the MIC [3] of the same molecule?
**A.** 8 µg/mL (≈ 8.98 µM)

**Q.** What about the MIC [4] of the same molecule?
**A.** 4 µg/mL (≈ 4.49 µM)

**Q.** And the MIC [5]?
**A.** 4 µg/mL (≈ 4.49 µM)

**Q.** What about the MIC [6] of the same molecule?
**A.** > 128 µg/mL

**Q.** What about the MIC [7] of the same molecule?
**A.** 8 µg/mL (≈ 8.98 µM)

**Q.** What about the MIC [8] of the same molecule?
**A.** > 128 µg/mL

**Q.** What about the MIC [9] of the same molecule?
**A.** 4 µg/mL (≈ 4.49 µM)

**Q.** What about the MIC [10] of the same molecule?
**A.** 64 µg/mL (≈ 71.8 µM)

**Q.** What about the MIC ([11]; agar-dilution, read-out: MIC) of the same molecule?
**A.** 2 µg/mL (≈ 2.24 µM)

**Q.** What about the MIC (Escherichia coli EC14) of the same molecule?
**A.** > 128 µg/mL

**Q.** What about the MIC [12] of the same molecule?
**A.** 4 µg/mL (≈ 4.49 µM)

**Q.** What about the MIC [13] of the same molecule?
**A.** 8 µg/mL (≈ 8.98 µM)

**Q.** And the MIC [14, 16]?
**A.** > 128 µg/mL

**Q.** Which MIC [1] does the source give for `CCC1OC(=O)CC(O)C(C)C(OC2OC(C)C(O)C(N(C)C)C2O)C(CCOc2ccccc2)CC(C)C(=O)C=CC(C)=CC1COC1OC(C)C(I)C(OC)C1OC` (centres unmarked) [Compound 19, 4"-Deoxy-4"-iodo-20-DH-20-O-phenyl-desmycosin] here?
**A.** 8 µg/mL (≈ 8.33 µM)

**Q.** And the MIC [2, 15]?
**A.** > 128 µg/mL

**Q.** What about the MIC [3] of the same molecule?
**A.** 8 µg/mL (≈ 8.33 µM)

**Q.** And the MIC [4]?
**A.** 8 µg/mL (≈ 8.33 µM)

**Q.** And the MIC [5]?
**A.** 8 µg/mL (≈ 8.33 µM)

**Q.** And the MIC [6]?
**A.** > 128 µg/mL

**Q.** And the MIC [7]?
**A.** 8 µg/mL (≈ 8.33 µM)

**Q.** What about the MIC [8] of the same molecule?
**A.** > 128 µg/mL

**Q.** What about the MIC [9] of the same molecule?
**A.** 8 µg/mL (≈ 8.33 µM)

**Q.** And the MIC [10]?
**A.** 8 µg/mL (≈ 8.33 µM)

**Q.** And the MIC [11]?
**A.** 8 µg/mL (≈ 8.33 µM)

**Q.** And the MIC (Escherichia coli EC14)?
**A.** > 128 µg/mL

**Q.** What about the MIC [12] of the same molecule?
**A.** 8 µg/mL (≈ 8.33 µM)

**Q.** What about the MIC [13] of the same molecule?
**A.** 8 µg/mL (≈ 8.33 µM)

**Q.** And the MIC [14, 16]?
**A.** > 128 µg/mL
